Drawing on US12202835B2, “Substituted aromatic ring-linked dioxinoquinazolines and dioxinoquinolines as kinase inhibitors” (BEIJING SCITECH-MQ PHARMACEUTICALS LIMITED, priority 2018, dated 2025), this text covers IC50 for 15 molecules.

Structures are written as SMILES.

In one assay the target is VEGFR-2 kinase (Homo sapiens (Human), UniProt P35968). Briefly: Assay of small molecular compounds for inhibiting the activity of VEGFR-2 kinase (LANCE TR-FRET). It is filed as biochemical. Particulars: read-out: VEGFR2 IC50. The method, boiled down: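 LANCE TR-FRET with human VEGFR-2 (2× stock 0.5 nM) preincubated 30 min with compound (final 2500 to 0.042 nM, 11-point 3-fold), then ULight-JAK-1 (Tyr1023) peptide/ATP added (4× stocks 200 nM/40 μM). Reaction 60 min room temperature, 4% DMSO; IC50 from inhibition-rate curve.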
VEGFR-2 kinase, sequence (P35968 20-1356): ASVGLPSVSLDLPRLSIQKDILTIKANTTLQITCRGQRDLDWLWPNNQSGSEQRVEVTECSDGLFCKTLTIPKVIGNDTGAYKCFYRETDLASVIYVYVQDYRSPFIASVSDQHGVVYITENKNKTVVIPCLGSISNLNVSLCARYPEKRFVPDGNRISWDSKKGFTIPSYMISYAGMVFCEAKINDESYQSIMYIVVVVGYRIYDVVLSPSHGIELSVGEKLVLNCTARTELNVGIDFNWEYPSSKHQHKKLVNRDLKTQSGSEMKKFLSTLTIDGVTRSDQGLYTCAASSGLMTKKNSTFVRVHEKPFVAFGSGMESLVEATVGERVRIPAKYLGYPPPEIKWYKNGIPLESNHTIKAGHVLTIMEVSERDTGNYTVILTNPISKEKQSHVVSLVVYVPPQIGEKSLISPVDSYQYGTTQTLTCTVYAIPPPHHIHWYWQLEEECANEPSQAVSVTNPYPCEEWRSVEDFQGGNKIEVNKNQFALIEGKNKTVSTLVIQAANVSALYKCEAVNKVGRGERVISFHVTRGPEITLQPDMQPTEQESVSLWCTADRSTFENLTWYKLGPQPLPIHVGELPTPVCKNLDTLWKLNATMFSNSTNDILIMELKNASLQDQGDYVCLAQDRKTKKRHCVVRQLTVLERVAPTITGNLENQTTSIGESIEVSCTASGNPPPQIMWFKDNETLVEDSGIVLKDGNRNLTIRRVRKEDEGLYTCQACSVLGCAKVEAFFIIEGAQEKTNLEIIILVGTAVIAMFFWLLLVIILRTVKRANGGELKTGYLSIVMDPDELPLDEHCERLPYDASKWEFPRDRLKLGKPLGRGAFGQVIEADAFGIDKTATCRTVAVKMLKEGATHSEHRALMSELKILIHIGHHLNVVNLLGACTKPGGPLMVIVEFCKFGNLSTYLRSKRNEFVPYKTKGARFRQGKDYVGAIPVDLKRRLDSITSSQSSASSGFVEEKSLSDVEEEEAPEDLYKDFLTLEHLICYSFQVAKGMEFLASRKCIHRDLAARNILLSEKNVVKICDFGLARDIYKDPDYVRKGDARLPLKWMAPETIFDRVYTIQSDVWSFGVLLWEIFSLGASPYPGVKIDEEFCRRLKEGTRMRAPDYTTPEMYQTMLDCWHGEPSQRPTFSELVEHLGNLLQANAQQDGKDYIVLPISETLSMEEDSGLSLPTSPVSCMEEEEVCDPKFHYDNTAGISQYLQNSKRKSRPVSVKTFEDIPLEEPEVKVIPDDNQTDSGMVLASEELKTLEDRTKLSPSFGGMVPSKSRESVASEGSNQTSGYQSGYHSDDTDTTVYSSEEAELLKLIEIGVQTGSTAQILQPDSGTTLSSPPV
(In TR-FRET formats the signal depends on donor and acceptor labels being close together.)

A further assay addresses c-MET kinase (Homo sapiens (Human), UniProt P08581). Briefly: Assay of small molecular compounds for inhibiting the activity of c-MET kinase (LANCE TR-FRET). In kind it is biochemical. The conditions noted are these: read-out: CMET IC50. A digest of the protocol: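 LANCE TR-FRET assay with c-MET at 1 nM final after a 5 min room-temperature preincubation with compound (11-point, 3-fold series, 2500–0.042 nM final, 4% DMSO). ULight-JAK-1 (Tyr1023) peptide (100 nM final) and ATP (10 μM final) reacted 60 min in the dark. Inhibition was taken relative to controls, then IC50 fitted.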

In another assay the test system is Ba/F3 LMNA-NTRK1 cells. Briefly: Assay for inhibiting the proliferation of Ba/F3 LMNA-NTRK1 cells (CCK-8). In kind it is cell-based. Particulars: Mus musculus, BaF3. The method, boiled down:
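Cells were seeded and cultured overnight, then treated with graded compound concentrations (final DMSO 0.25%) for 72 h. CCK-8 was added for 1–2 h at 37 °C and OD450 read. Survival was normalised to untreated and cell-free blank wells, and IC50 was fitted.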

c-MET kinase, sequence (P08581 25-1390): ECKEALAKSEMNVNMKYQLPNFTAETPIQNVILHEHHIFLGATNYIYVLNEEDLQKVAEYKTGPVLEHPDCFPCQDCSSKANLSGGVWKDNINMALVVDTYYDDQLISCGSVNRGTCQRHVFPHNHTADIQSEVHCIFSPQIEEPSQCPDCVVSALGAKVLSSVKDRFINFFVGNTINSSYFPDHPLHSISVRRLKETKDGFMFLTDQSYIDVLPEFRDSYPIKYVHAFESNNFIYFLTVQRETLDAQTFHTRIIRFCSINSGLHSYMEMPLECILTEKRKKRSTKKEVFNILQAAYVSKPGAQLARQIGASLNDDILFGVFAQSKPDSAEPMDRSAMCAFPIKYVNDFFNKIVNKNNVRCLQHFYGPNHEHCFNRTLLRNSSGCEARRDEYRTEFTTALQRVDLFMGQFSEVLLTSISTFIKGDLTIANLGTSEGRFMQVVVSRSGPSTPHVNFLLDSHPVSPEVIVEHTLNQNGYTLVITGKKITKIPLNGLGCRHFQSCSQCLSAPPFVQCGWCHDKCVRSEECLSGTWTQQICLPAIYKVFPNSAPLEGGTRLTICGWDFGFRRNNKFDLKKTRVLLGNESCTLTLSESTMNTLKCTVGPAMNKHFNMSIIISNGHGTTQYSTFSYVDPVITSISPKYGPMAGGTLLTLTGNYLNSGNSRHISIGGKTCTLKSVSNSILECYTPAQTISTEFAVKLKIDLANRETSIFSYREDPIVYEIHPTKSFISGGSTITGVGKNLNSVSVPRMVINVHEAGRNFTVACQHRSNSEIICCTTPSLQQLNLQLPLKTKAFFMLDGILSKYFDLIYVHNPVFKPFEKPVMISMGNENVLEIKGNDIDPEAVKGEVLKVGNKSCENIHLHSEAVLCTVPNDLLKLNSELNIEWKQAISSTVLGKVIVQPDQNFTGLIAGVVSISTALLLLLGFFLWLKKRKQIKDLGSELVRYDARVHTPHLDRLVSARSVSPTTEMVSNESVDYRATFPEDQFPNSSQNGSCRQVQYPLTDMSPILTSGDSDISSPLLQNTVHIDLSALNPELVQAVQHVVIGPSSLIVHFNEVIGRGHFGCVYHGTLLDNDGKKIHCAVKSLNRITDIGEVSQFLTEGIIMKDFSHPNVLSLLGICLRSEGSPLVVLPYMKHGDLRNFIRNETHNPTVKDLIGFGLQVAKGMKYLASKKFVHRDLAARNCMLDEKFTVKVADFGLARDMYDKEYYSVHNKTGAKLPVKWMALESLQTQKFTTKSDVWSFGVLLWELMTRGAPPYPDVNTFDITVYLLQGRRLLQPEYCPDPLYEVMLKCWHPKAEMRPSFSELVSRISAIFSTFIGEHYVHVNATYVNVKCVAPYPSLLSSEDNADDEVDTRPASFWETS

For orientation: IC50 means the concentration that inhibits the measured activity by half. In the case of `COc1cc2ncnc(Oc3ccc(NC(=O)c4cccn(-c5ccc(F)cc5)c4=O)cc3F)c2c2c1OCCO2` [Example 1, N-(3-fluoro-4-((5-methoxy-2,3-dihydro-[1,4]dioxino[2,3-f]quinazolin-10-yl)oxy)phenyl)-1-(4-fluorophenyl)-2-oxo-1,2-dihydropyridine-3-carboxamide], the IC50 at VEGFR-2 kinase and at c-MET kinase was no more than 50 nM in each case.
In the case of `COc1cc2ncnc(Oc3ccc(NC(=O)c4c(OC)ccn(-c5ccc(F)cc5)c4=O)cc3F)c2c2c1OCCO2` [Example 2, N-(3-fluoro-4-((5-methoxy-2,3-dihydro-[1,4]dioxino[2,3-f]quinazolin-10-yl)oxy)phenyl)-1-(4-fluorophenyl)-4-methoxy-2-oxo-1,2-dihydropyridine-3-carboxamide], the 50% inhibitory concentration (IC50) is 50 to 500 nM on VEGFR-2 kinase and no more than 50 nM on c-MET kinase.
The corresponding values for `CCOc1ccn(-c2ccc(F)cc2)c(=O)c1C(=O)Nc1ccc(Oc2ncnc3cc(OC)c4c(c23)OCCO4)c(F)c1` [Example 3, N-(3-fluoro-4-((5-methoxy-2,3-dihydro-[1,4]dioxino[2,3-f]quinazolin-10-yl)oxy)phenyl)-1-(4-fluorophenyl)-4-ethoxy-2-oxo-1,2-dihydropyridine-3-carboxamide] are 50 to 500 nM and no more than 50 nM.
The corresponding values for `COc1cn(-c2ccc(F)cc2C)nc1C(=O)Nc1ccc(Oc2ncnc3cc(OCCCN4CCOCC4)c4c(c23)OCCO4)c(F)c1` [Example 11, 1-(4-fluoro-2-methylphenyl)-N-(3-fluoro-4-((5-(3-morpholinopropoxy)-2,3-dihydro-[1,4]dioxino[2,3-f]quinazolin-10-yl)oxy)phenyl)-4-methoxy-1H-pyrazole-3-carboxamide] are 50 to 500 nM and no more than 50 nM.
For `CCOc1cn(-c2ccc(F)cc2C)nc1C(=O)Nc1ccc(Oc2ncnc3cc(OCCCN4CCOCC4)c4c(c23)OCCO4)c(F)c1` [Example 12, 1-(4-fluoro-2-methylphenyl)-N-(3-fluoro-4-((5-(3-morpholinopropoxy)-2,3-dihydro-[1,4]dioxino[2,3-f]quinazolin-10-yl)oxy)phenyl)-4-ethoxy-1H-pyrazole-3-carboxamide], the half-inhibitory concentration (IC50) on VEGFR-2 kinase was 500 to 5000 nM; on c-MET kinase, no more than 50 nM.
As for `COCCOc1cc2nccc(Oc3ccc(NC(=O)c4cn(C(C)C)c(=O)n(-c5ccc(F)cc5)c4=O)cc3F)c2c2c1OCCO2` [Example 43, N-(3-fluoro-4-((5-(2-methoxyethoxy)-2,3-dihydro-[1,4]dioxino[2,3-f]quinolin-10-yl)oxy)phenyl)-3-(4-fluorophenyl)-1-isopropyl-2,4-dioxo-1,2,3,4-tetrahydropyrimidine-5-carboxamide], the IC50 in the assay on Ba/F3 LMNA-NTRK1 cells is less than 50 nM; on c-MET kinase, no more than 50 nM.
With `CCn1cc(C(=O)Nc2ccc(Oc3ccnc4cc(OCCOC)c5c(c34)OCCO5)c(F)c2)c(=O)n(-c2ccc(F)cc2)c1=O` [Example 44, N-(3-fluoro-4-((5-(2-methoxyethoxy)-2,3-dihydro-[1,4]dioxino[2,3-f]quinolin-10-yl)oxy)phenyl)-3-(4-fluorophenyl)-1-ethyl-2,4-dioxo-1,2,3,4-tetrahydropyrimidine-5-carboxamide], the IC50 was 50 to 500 nM on VEGFR-2 kinase, less than 50 nM in the assay with Ba/F3 LMNA-NTRK1 cells and no more than 50 nM at c-MET kinase.
`COc1cc2nccc(Oc3ccc(NC(=O)c4cn(CCO)c(=O)n(-c5ccc(F)cc5)c4=O)cc3F)c2c2c1OCCO2` [Example 45, N-(3-fluoro-4-((5-methoxy-2,3-dihydro-[1,4]dioxino[2,3-f]quinolin-10-yl)oxy)phenyl)-3-(4-fluorophenyl)-1-(2-hydroxyethyl)-2,4-dioxo-1,2,3,4-tetrahydropyrimidine-5-carboxamide]: the results for the IC50 at VEGFR-2 kinase and at c-MET kinase were 500 to 5000 nM and no more than 50 nM, respectively.
Turning to `COCCn1cc(C(=O)Nc2ccc(Oc3ccnc4cc(OC)c5c(c34)OCCO5)c(F)c2)c(=O)n(-c2ccc(F)cc2)c1=O` [Example 46, N-(3-fluoro-4-((5-methoxy-2,3-dihydro-[1,4]dioxino[2,3-f]quinolin-10-yl)oxy)phenyl)-3-(4-fluorophenyl)-1-(2-methoxyethyl)-2,4-dioxo-1,2,3,4-tetrahydropyrimidine-5-carboxamide], the concentration for half-maximal inhibition (IC50) at VEGFR-2 kinase is 500 to 5000 nM; in the assay on Ba/F3 LMNA-NTRK1 cells, less than 50 nM; on c-MET kinase, no more than 50 nM.
Take `CCOc1ccn(-c2ccc(F)cc2)c(=O)c1C(=O)Nc1ccc(Oc2ccnc3cc(OCC(C)C)c4c(c23)OCCO4)c(F)c1` [Example 58, N-(4-((5-(isobutyloxy)-2,3-dihydro-[1,4]dioxino[2,3-f]quinolin-10-yl)oxy)-3-fluorophenyl)-4-ethoxy-1-(4-fluorophenyl)-2-oxo-1,2-dihydropyridine-3-carboxamide]: the IC50 at VEGFR-2 kinase and at c-MET kinase was no more than 50 nM each time.
Turning to `CCOc1ccn(-c2ccc(F)cc2)c(=O)c1C(=O)Nc1ccc(Oc2ccnc3cc(OCC4CC4)c4c(c23)OCCO4)c(F)c1` [Example 59, N-(4-((5-(cyclopropylmethoxy)-2,3-dihydro-[1,4]dioxino[2,3-f]quinolin-10-yl)oxy)-3-fluorophenyl)-4-ethoxy-1-(4-fluorophenyl)-2-oxo-1,2-dihydropyridine-3-carboxamide], the IC50 on VEGFR-2 kinase and at c-MET kinase was no more than 50 nM throughout.
Turning to `CCOc1ccn(-c2ccc(F)cc2)c(=O)c1C(=O)Nc1ccc(Oc2ccnc3cc(OC(C)C)c4c(c23)OCCO4)c(F)c1` [Example 63, N-(4-((5-isopropoxy-2,3-dihydro-[1,4]dioxino[2,3-f]quinolin-10-yl)oxy)-3-fluorophenyl)-4-ethoxy-1-(4-fluorophenyl)-2-oxo-1,2-dihydropyridine-3-carboxamide], the 50% inhibitory concentration (IC50) on VEGFR-2 kinase is 50 to 500 nM; on c-MET kinase it was no more than 50 nM.
For `CC(=O)N1CCN(CCCOc2cc3nccc(Oc4ccc(NC(=O)c5cn(C(C)C)c(=O)n(-c6ccc(F)cc6)c5=O)cc4F)c3c3c2OCCO3)CC1` [Example 75, N-(3-fluoro-4-((5-(3-(4-acetylpiperazin-1-yl)propoxy)-2,3-dihydro-[1,4]dioxino[2,3-f]quinolin-10-yl)oxy)phenyl)-3-(4-fluorophenyl)-1-isopropyl-2,4-dioxo-1,2,3,4-tetrahydropyrimidine-5-carboxamide], the half-inhibitory concentration (IC50) was less than 50 nM with Ba/F3 LMNA-NTRK1 cells and no more than 50 nM at c-MET kinase.
The matching figures for `CC(C)n1cc(C(=O)Nc2ccc(Oc3ccnc4cc(OCCCO)c5c(c34)OCCO5)c(F)c2)c(=O)n(-c2ccc(F)cc2)c1=O` [Example 79, N-(3-fluoro-4-((5-(3-hydroxypropoxy)-2,3-dihydro-[1,4]dioxino[2,3-f]quinolin-10-yl)oxy)phenyl)-3-(4-fluorophenyl)-1-isopropyl-2,4-dioxo-1,2,3,4-tetrahydropyrimidine-5-carboxamide]: less than 50 nM and no more than 50 nM.
`CC(C)Oc1cc2nccc(Oc3ccc(NC(=O)c4cn(C)c(=O)n(-c5ccc(F)cc5)c4=O)cc3F)c2c2c1OCCO2` [Example 88, N-(3-fluoro-4-((5-isopropoxy-2,3-dihydro-[1,4]dioxino[2,3-f]quinolin-10-yl)oxy)phenyl)-3-(4-fluorophenyl)-1-methyl-2,4-dioxo-1,2,3,4-tetrahydropyrimidine-5-carboxamide]: the concentration for half-maximal inhibition (IC50) on VEGFR-2 kinase is 500 to 5000 nM; at c-MET kinase it was no more than 50 nM.
